pIC50: −log10 of the molar value.
Assays:
EGFR (D770_N771insNPG) = EGFR (D770_N771insNPG) (Homo sapiens, UniProt P00533, INS770NPG); assay: HotSpot radiometric kinase assay, inhibition of EGFR (D770_N771insNPG) mutant; assay type: biochemical; conditions: 33P ATP, room temperature, 120 m
In short: (§1)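 Radiometric filter-binding format: ATP plus 33P-ATP ([…]) was added about 20 min after compound to kinase and substrate in HEPES pH 7.5 buffer with Mg2+, EGTA, Brij35, BSA, vanadate, DTT and 1% DMSO. After 120 min at room temperature, reactions were spotted on P81 paper and washed in phosphoric acid; IC50 values fitted.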

[1] = target: T1, pEGFR, PC-9 cells (d746-750 EGFR) (Homo sapiens, UniProt P00533, DEL746-750); assay: Cellular EGFR phosphorylation assay (LANCE Ultra TR-FRET) in PC-9 cells; assay type: cell-based; conditions: 4 hours at 37° C., read-out: PC-9 pEGFR IC50
T1 construct: pEGFR (Tyr1068) TR-FRET
In short: (§2)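 4 h compound treatment at 37 °C, 9-point 3-fold titration. EGF (40 ng/mL, final 10 min) in A431 only. Tyr1068 phosphorylation measured by TR-FRET and IC50 fitted.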

EGFR (D746-750/C797S) = EGFR (D746-750/C797S) (Homo sapiens, UniProt P00533, C797S/DEL746-750); assay: HotSpot radiometric kinase assay, inhibition of EGFR 746-750/C797S mutant; assay type: biochemical; conditions: 33P ATP, room temperature, 120 m
In short: as §1

EGFR (D746-750) = EGFR (D746-750) (Homo sapiens, UniProt P00533, DEL746-750); assay: HotSpot radiometric kinase assay, inhibition of EGFR 746-750 mutant; assay type: biochemical; conditions: 33P ATP, room temperature, 120 m
In short: as §1

[2] = target: T2, pEGFR, A431 cells (wildtype EGFR) (Homo sapiens, UniProt P00533); assay: Cellular EGFR phosphorylation assay (LANCE Ultra TR-FRET) in A431 cells; assay type: cell-based; conditions: 4 hours at 37° C., 40 ng/mL EGF for the final 10 minutes, read-out: A431 pEGFR IC50
T2 construct: pEGFR (Tyr1068) TR-FRET
In short: as §2

[3] = target: T3, pEGFR, NCI-H1975 cells (L858R/T790M EGFR) (Homo sapiens, UniProt P00533, L858R/T790M); assay: Cellular EGFR phosphorylation assay (LANCE Ultra TR-FRET) in NCI-H1975 cells; assay type: cell-based; conditions: 4 hours at 37° C., read-out: H1975 pEGFR IC50
T3 construct: pEGFR (Tyr1068) TR-FRET
In short: as §2

EGFR (L858R) = EGFR (L858R) (Homo sapiens, UniProt P00533, L858R); assay: HotSpot radiometric kinase assay, inhibition of EGFR L858R mutant; assay type: biochemical; conditions: 33P ATP, room temperature, 120 m
Description: (§3) Biochemical Assays for inhibition of wild-type and mutant EGFRs
(§4) Briefly, specific kinase/substrate pairs along with required cofactors were prepared in reaction buffer; 20 mM HEPES pH 7.5, 10 mM […], 1 mM EGTA, 0.02% Brij35, 0.02 mg/ml BSA, 0.1 mM Na3VO4, 2 mM DTT, 1% DMSO. Compounds were delivered into the reaction, followed ~20 minutes later by addition of a mixture of ATP (Sigma, St. Louis MO) and ^33P ATP (Perkin Elmer, Waltham MA) to a final concentration of […]. Reactions were carried out at room temperature for 120 m, followed by spotting of the reactions onto P81 ion exchange filter paper (Whatman Inc., Piscataway, NJ). Unbound phosphate was removed by extensive washing of filters in 0.75% phosphoric acid. […] IC50 values and curve fits were obtained using Prism (GraphPad Software).

EGFR (L858R/T790M) = EGFR (L858R/T790M) (Homo sapiens, UniProt P00533, L858R/T790M); assay: HotSpot radiometric kinase assay, inhibition of EGFR L858R/T790M mutant; assay type: biochemical; conditions: 33P ATP, room temperature, 120 m
Description: as §3, §4

[4] = tested on: BaF3 cells with engineered EGFR L858R/T790M/C797S; assay: 3-Day CellTiter Glo (CTG) cell proliferation assay, BaF3 EGFR L858R/T790M/C797S; assay type: cell-based; conditions: Mus musculus, 3-day CTG proliferation, 72 hours
In short: (§5)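 Viability after 72 h compound exposure (9 concentrations, 37° C, 5% CO2) was measured as ATP luminescence with CellTiter-Glo 2.0 in EGFR-mutant-engineered BaF3 cells plated at one thousand cells per well. IC50 values obtained by curve fitting.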

[5] = tested on: BaF3 cells with engineered EGFR d746-750/T790M; assay: 3-Day CellTiter Glo (CTG) cell proliferation assay, BaF3 EGFR d746-750/T790M; assay type: cell-based; conditions: Mus musculus; BaF3 EGFR d746-750/T790M cells, 3-day CTG proliferation, 72 hours
In short: as §5

[6] = tested on: BaF3 cells with engineered EGFR L858R/C797S; assay: 3-Day CellTiter Glo (CTG) cell proliferation assay, BaF3 EGFR L858R/C797S; assay type: cell-based; conditions: Mus musculus, 3-day CTG proliferation, 72 hours
In short: as §5

HCC827 cells = assay: 5-Day CellTiter Glo (CTG) cell proliferation assay, HCC827; assay type: cell-based; conditions: Homo sapiens; HCC827 cells (d746-750 EGFR), 5-day CTG proliferation, 120 hours; read-out: HCC827 IC50
In short: (§6)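 Proliferation of EGFR-driven NSCLC cells was scored as CellTiter-Glo 2.0 luminescence after a 5-day (120 h) incubation with compounds in 9 doses. IC50 values came from the dose-response curves.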

PC-9 cells = assay: 5-Day CellTiter Glo (CTG) cell proliferation assay, PC-9; assay type: cell-based; conditions: Homo sapiens; PC-9 cells (d746-750 EGFR), 5-day CTG proliferation, 120 hours; read-out: PC-9 IC50
In short: as §6

EGFR WT = EGFR WT (Homo sapiens, UniProt P00533); assay: HotSpot radiometric kinase assay, inhibition of EGFR WT; assay type: biochemical; conditions: 33P ATP, room temperature, 120 m
Description: as §3, §4

EGFR (L858R/T790M/C797S) = EGFR (L858R/T790M/C797S) (Homo sapiens, UniProt P00533, C797S/L858R/T790M); assay: HotSpot radiometric kinase assay, inhibition of EGFR L858R/T790M/C797S mutant; assay type: biochemical; conditions: 33P ATP, room temperature, 120 m
In short: as §1

NCI-H1975 cells = assay: 5-Day CellTiter Glo (CTG) cell proliferation assay, NCI-H1975; assay type: cell-based; conditions: Homo sapiens; NCI-H1975 cells (L858R/T790M EGFR), 5-day CTG proliferation, 120 hours; read-out: H1975 IC50
In short: as §6

EGFR (L858R/T790M), sequence (P00533 25-1210 T790M/L858R): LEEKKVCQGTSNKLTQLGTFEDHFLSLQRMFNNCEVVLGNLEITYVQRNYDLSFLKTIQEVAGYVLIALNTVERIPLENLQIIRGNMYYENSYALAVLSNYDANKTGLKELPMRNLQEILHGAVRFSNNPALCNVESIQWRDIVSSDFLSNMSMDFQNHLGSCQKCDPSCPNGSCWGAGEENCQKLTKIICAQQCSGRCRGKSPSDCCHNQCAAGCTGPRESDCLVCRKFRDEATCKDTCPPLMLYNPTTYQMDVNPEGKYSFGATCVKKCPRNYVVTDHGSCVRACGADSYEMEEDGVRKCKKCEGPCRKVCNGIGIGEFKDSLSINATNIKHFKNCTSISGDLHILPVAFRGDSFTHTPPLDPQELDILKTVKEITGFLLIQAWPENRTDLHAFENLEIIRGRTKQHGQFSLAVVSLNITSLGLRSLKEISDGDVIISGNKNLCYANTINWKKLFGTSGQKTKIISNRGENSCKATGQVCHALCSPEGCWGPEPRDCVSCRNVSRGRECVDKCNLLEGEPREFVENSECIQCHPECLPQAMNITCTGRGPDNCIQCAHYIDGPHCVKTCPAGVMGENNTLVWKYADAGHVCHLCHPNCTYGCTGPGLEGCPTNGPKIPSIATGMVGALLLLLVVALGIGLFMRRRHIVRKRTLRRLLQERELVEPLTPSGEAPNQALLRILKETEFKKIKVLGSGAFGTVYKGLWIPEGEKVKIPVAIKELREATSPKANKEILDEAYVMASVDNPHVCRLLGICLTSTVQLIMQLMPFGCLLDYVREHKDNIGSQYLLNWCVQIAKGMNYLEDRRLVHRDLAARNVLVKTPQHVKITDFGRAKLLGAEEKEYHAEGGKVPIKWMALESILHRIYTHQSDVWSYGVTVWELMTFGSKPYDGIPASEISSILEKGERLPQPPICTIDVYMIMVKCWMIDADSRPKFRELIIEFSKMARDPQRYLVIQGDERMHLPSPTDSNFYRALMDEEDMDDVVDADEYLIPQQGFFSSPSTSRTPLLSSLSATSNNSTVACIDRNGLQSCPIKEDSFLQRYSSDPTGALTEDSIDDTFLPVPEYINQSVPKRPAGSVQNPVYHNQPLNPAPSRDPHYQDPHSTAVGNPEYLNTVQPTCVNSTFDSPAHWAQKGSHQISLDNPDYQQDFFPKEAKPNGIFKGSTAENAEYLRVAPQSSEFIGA
T3 sequence (P00533 25-1210 T790M/L858R): as above
EGFR (L858R), sequence (P00533 25-1210 L858R): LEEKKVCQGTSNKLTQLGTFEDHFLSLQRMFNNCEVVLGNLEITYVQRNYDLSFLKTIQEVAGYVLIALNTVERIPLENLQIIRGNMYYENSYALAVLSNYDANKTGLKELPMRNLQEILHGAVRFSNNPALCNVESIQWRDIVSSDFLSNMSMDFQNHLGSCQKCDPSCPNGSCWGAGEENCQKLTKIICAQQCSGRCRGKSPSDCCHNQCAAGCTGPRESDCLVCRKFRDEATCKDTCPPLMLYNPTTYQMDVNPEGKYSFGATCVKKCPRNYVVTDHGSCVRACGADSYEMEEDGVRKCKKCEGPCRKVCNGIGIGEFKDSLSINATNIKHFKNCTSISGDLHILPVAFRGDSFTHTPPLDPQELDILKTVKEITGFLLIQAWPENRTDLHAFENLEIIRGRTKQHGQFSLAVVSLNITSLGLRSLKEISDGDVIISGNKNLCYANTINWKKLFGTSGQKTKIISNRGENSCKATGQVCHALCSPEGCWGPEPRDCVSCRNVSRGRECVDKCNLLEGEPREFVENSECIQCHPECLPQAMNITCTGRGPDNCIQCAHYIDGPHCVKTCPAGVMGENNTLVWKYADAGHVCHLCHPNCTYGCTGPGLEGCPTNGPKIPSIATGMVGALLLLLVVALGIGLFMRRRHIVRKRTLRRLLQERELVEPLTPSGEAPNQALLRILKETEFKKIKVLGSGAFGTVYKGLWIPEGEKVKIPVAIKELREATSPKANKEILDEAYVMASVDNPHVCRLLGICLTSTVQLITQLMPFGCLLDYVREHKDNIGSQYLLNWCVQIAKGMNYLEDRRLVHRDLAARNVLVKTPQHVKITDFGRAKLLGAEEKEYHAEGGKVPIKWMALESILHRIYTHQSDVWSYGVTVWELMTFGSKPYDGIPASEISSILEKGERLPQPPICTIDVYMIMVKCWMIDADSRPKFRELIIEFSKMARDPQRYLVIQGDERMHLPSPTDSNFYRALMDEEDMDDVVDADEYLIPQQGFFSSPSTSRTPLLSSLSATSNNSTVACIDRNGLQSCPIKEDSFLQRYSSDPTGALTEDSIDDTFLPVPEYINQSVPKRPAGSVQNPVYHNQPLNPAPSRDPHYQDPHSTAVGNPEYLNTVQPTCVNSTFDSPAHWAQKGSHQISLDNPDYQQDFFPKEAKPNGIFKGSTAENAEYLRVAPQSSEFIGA
EGFR (D770_N771insNPG), sequence (P00533 with tags, fused parts or gaps INS770NPG limits assumed): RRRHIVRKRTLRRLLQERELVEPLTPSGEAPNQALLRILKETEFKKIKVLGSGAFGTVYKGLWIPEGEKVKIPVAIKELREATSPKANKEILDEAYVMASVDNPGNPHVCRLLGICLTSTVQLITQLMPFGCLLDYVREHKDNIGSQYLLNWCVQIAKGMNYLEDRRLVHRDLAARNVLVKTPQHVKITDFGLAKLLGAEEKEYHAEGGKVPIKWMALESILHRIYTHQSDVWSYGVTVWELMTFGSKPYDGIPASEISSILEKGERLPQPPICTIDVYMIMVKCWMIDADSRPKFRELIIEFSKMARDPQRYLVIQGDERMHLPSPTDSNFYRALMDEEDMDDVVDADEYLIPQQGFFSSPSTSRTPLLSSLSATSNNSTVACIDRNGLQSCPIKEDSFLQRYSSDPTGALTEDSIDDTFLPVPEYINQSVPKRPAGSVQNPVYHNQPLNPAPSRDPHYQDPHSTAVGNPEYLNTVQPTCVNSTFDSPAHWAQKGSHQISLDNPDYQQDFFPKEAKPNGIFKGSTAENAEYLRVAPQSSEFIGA

| SMILES | pIC50 (EGFR (D770_N771insNPG)) | pIC50 [1] | pIC50 (EGFR (D746-750/C797S)) | pIC50 (EGFR (D746-750)) | pIC50 [2] | pIC50 [3] | pIC50 (EGFR (L858R)) | pIC50 (EGFR (L858R/T790M)) | pIC50 [4] | pIC50 [5] | pIC50 [6] | pIC50 (HCC827 cells) | pIC50 (PC-9 cells) | pIC50 (EGFR WT) | pIC50 (EGFR (L858R/T790M/C797S)) | pIC50 (NCI-H1975 cells) |
| --- | --- | --- | --- | --- | --- | --- | --- | --- | --- | --- | --- | --- | --- | --- | --- | --- |
| CC(C)Oc1nn(CCO)c2c1/C=C/c1n[nH]c3cnc(cc13)-c1cnn(C)c1O[C@H](C)CN(C(C)C)C2 [Ex. 3, 2-[(10R,17E)-8,10-dimethyl-12-(propan-2-yl)-16-[(propan-2-yl)oxy]-2,8,10,11,12,13-hexahydro-14H-5,3-(azenometheno)tripyrazolo[3,4-f:3′,4′-j:4″,3″-n][1,4]oxazacyclopentadecin-14-yl]ethan-1-ol] | 8.42 | 7.83 | 8.81 | 8.90 | 7.44 | 8.19 | 8.82 | 8.88 | 8.74 | 8.35 | 8.89 | 8.35 | 7.26 | 8.74 | 9.07 | 7.53 |
| CCOc1nn(CCO)c2c1/C=C/c1n[nH]c3cnc(cc13)-c1c(C)nn(C)c1OC[C@H](C)N(CC)C2 [Ex. 16, 2-[(11S,17E)-16-ethoxy-12-ethyl-6,8,11-trimethyl-2,8,10,11,12,13-hexahydro-14H-5,3-(azenometheno)tripyrazolo[3,4-f:3′,4′-j:4″,3″-n][1,4]oxazacyclopentadecin-14-yl]ethan-1-ol] | 9.17 | 8.36 | 8.84 | 9.18 | 7.70 | 8.28 | 9.21 | 8.86 | 8.71 | 9.18 | 9.47 | 9.06 | 8.25 | 9.35 | 8.34 | 7.57 |
| CCOc1nn(CCO)c2c1/C=C/c1n[nH]c3c(C)nc(cc13)-c1cnn(C)c1O[C@@H](C)CN(CC)C2 [Ex. 28, 2-[(10S,17E)-16-ethoxy-12-ethyl-8,10,20-trimethyl-2,8,10,11,12,13-hexahydro-14H-5,3-(azenometheno)tripyrazolo[3,4-f:3′,4′-j:4″,3″-n][1,4]oxazacyclopentadecin-14-yl]ethan-1-ol] | 8.91 | 7.84 | 9.07 | 9.43 | 7.28 | 8.52 | 8.70 | 9.34 | 8.77 | 8.94 | 8.61 | 8.63 | 7.77 | 8.99 | 9.39 | 7.48 |
| CCOc1nn(CCO)c2c1/C=C/c1n[nH]c3cnc(cc13)-c1c(C)nn(C)c1O[C@@H](C)CN(C(C)C)C2 [Ex. 8, 2-[(10S,17E)-16-ethoxy-6,8,10-trimethyl-12-(propan-2-yl)-2,8,10,11,12,13-hexahydro-14H-5,3-(azenometheno)tripyrazolo[3,4-f:3′,4′-j:4″,3″-n][1,4]oxazacyclopentadecin-14-yl]ethan-1-ol] | 9.49 | 8.98 | 9.43 | 9.26 | 8.09 | 8.81 | 9.46 | 9.15 | 9.09 | 9.36 | 10.00 | 9.96 | 9.44 | 9.82 | 9.32 | 9.04 |
| CCOc1nn([C@@H](C)CO)c2c1/C=C/c1n[nH]c3cnc(cc13)-c1c(C)nn(C)c1O[C@@H](C)CN(C)C2 [Ex. 27, (2S)-2-[(10S,17E)-16-ethoxy-6,8,10,12-tetramethyl-2,8,10,11,12,13-hexahydro-14H-5,3-(azenometheno)tripyrazolo[3,4-f:3′,4′-j:4″,3″-n][1,4]oxazacyclopentadecin-14-yl]propan-1-ol] | 9.57 | 9.04 | 9.05 | 9.55 | 7.90 | 8.73 | 9.05 | 9.29 | 9.14 | 9.26 | 10.15 | 9.59 | 9.35 | 9.51 | 9.35 | 9.01 |
| CCOc1nn(CCO)c2c1/C=C/c1n[nH]c3cnc(cc13)-c1c(C)nn(C)c1O[C@H](C)CN(C(C)C)C2 [Ex. 1, 2-[(10R,17E)-16-ethoxy-6,8,10-trimethyl-12-(propan-2-yl)-2,8,10,11,12,13-hexahydro-14H-5,3-(azenometheno)tripyrazolo[3,4-f:3′,4′-j:4″,3″-n][1,4]oxazacyclopentadecin-14-yl]ethan-1-ol] | 8.82 | 8.51 | 8.81 | 8.91 | 7.72 | 8.52 | 8.95 | 8.74 | 8.80 | 8.77 | 9.39 | 9.17 | 8.33 | 8.95 | 9.00 | 7.54 |
| CCOc1nn([C@@H](C)CO)c2c1/C=C/c1n[nH]c3cnc(cc13)-c1c(C)nn(C)c1O[C@H](C)CN(CC)C2 [Ex. 24, (2S)-2-[(10R,17E)-16-ethoxy-12-ethyl-6,8,10-trimethyl-2,8,10,11,12,13-hexahydro-14H-5,3-(azenometheno)tripyrazolo[3,4-f:3′,4′-j:4″,3″-n][1,4]oxazacyclopentadecin-14-yl]propan-1-ol] | 9.21 | 8.82 | 8.97 | 9.29 | 7.65 | 8.80 | 8.77 | 9.03 | 9.11 | 9.39 | 9.96 | 9.57 | 9.33 | 9.30 | 9.24 | 8.90 |
| CCOc1nn(CCO)c2c1/C=C/c1n[nH]c3cnc(cc13)-c1c(C)nn(C)c1O[C@@H](C)CN(CC)C2 [Ex. 15, 2-[(10S,17E)-16-ethoxy-12-ethyl-6,8,10-trimethyl-2,8,10,11,12,13-hexahydro-14H-5,3-(azenometheno)tripyrazolo[3,4-f:3′,4′-j:4″,3″-n][1,4]oxazacyclopentadecin-14-yl]ethan-1-ol] | 9.66 | 8.98 | 9.62 | 9.22 | 8.13 | 8.73 | 9.57 | 9.43 | 9.10 | 9.24 | 10.22 | 9.74 | 9.48 | 9.92 | 9.43 | 9.12 |
